Key:
[1] = test system: MLL4 mutant colorectal cancer cells (SW480, DLD1, HCT116, RKO); experiment: CellTiter-Glo viability assay in MLL4 wild type and MLL4 mutant colorectal cell lines; assay type: cell-based, human; settings: 72 hours; LTX 0-30 μM, Piericidin A 0-10 μM, Phenformin 0-30 mM
[2] = test system: HCT116 sc xenografts (MLL4 mutant); experiment: HCT116 subcutaneous xenograft in nude mice; assay type: in vivo
Method: FIG. 6. Inhibition of de novo purine synthesis by lometrexol inhibits MLL4 mutant tumor growth. Tumor development after inoculation of 4×10^6 of HCT116 cells into the nude mice. Mice with HCT116 subcutaneous (sc) tumor were either treated with vehicle (DMSO, n=9) or LTX (25 mg/kg, n=9) daily for 7 days. (A) Growth plots for sc tumors in each treatment group were shown. Tumor volumes (mm3) show mean and upper SD. (B) Dot plot representation of sc tumor volume in mice at day 12 post-tumor cell injection. Unpaired t-test values for comparisons between DMSO and LTX treatment: ****, P<0.0001. (C) Photographs of nude mice (left) and sc tumor taken from these mice (right) in which HCT116 cells were inoculated into the right flank. (D) Animal survival at the indicated days after inoculation. Log-rank test was used for comparisons between DMSO and LTX treatment: ****, P<0.0001. (E) H&E staining and immunohistochemistry showing the proliferation and apoptosis in tumors with Ki-67 and TUNEL staining. The signals for Ki-67 and TUNEL are quantified and shown in the bar plots on the right.
FIG. 20. Lometrexol application in MLL4 mutant tumors in the xenograft mouse models. (A-D) Tumor development after inoculation of 4×10^6 of HT55 cells into the nude mice. Mice with HT55 subcutaneous (sc) tumor were either treated with vehicle (DMSO, n=9) or LTX (15 mg/kg, n=9) daily for 7 days. (A) Growth plots for sc tumors in each treatment group were shown. Tumor volumes (mm3) show mean and upper SD. (B) Dot plot representation of sc tumor volume in mice at day 18 post-tumor cell injection. […] (C) Photographs of nude mice (upper) and sc tumor taken from these mice (lower) in which HT55 cells were inoculated into the right flank. (D) Animal survival at the indicated days after inoculation. Log-rank test was used for comparisons between DMSO and LTX treatment. (E-H) Tumor development after inoculation of 4×10^6 of HCT116 cells into the nude mice. Mice with HCT116 subcutaneous (sc) tumor were either treated with vehicle (DMSO, n=9) or LTX (15 mg/kg, n=9) daily for 7 days. (E) Growth plots for sc tumors in each treatment group were shown. Tumor volumes (mm3) show mean and upper SD. (F) Dot plot representation of sc tumor volume in mice at day 12 post-tumor cell injection. Unpaired t-test values for comparisons between DMSO and LTX treatment: ***, P<0.001. (G) Photographs of nude mice (upper) and sc tumor taken from these mice (lower) in which HCT116 cells were inoculated into the right flank. (H) Animal survival at the indicated days after inoculation. Log-rank test was used for comparisons between DMSO and LTX treatment: ***, P<0.001.
Six-week-old female athymic mice (nu/nu genotype, BALB/c background) were purchased from Envigo (Indianapolis, IN, USA) and housed under aseptic conditions. HT55 or HCT116 cells were implanted into the flank of athymic mice as previously described (65). Briefly, 4×10^6 cells, in 0.4 ml of cell culture media with matrigel (BD Bioscience) at 1:1 ratio, were injected in the right flank of mice under anesthetization by isoflurane. […] The tumor sizes were measured on alternate days and the mice were euthanized when the tumor size reached 1000 mm^3. […]
For in vivo study, the Kaplan-Meier estimator and Prism software were used to generate and analyze survival plots. Differences between survival plots were calculated using a log-rank test. […]

[3] = test system: RKO, HCT116, DLD1 (MLL4 mutant) and HT55, Caco2, SW1417 (MLL4 WT) cells; experiment: RNA-seq in colorectal cancer cells treated with LTX; assay type: cell-based, human; settings: 1 μM LTX, 24 hours
Method: FIG. 5. MLL4 mutant colorectal cancer cells are selectively sensitive to lometrexol treatment. (A) 100 μL of 0.5×10^5 cells/mL cells were seeded in 96-well plates one day before treatment. Cells were treated with 0-30 μM lometrexol (LTX) with 3× fold dilution for 72 hours. CellTiter-Glo® luminescent cell viability assay was performed to determine the percentage of inhibition under these conditions. The line plot compares sensitivity difference of all cell lines tested. (B) RKO, HCT116, DLD1, Caco2, HT55 and SW1417 cells were treated with DMSO or 1 μM LTX for 24 hours and whole cell lysates were used for western blot against cell cycle (H3 Ser10-p, CDT1, CyclinB 1, Geminin, CyclinEl, CyclinA2, p-cdc2) and apoptosis (PARP, Caspase3) markers using Hsp90 and I3-tubulin as loading control. […] (F) A subset of representative terms from the full cluster were selected and converted into a network layout. Each term is represented by a circle node, where its size is proportional to the number of input genes fall under that term, and its color represent its cluster identity. Terms with a similarity score>0.3 are linked by an edge (the thickness of the edge represents the similarity score). The network is visualized with Cytoscape with “force-directed” layout and with edge bundled for clarity. One term from each cluster is selected to have its term description shown as label.
FIG. 18. RNA-seq data in colorectal cancer cells treated with LTX. (A) Cellular morphological change in different cells treated with LTX at 1 μM for 24 hours under bring field microscope.
FIG. 19. The unique gene expression signature of MLL4 mutant cells in response to LTX treatment. (A-B) RNA-seq track examples showing the AURKA (A) and PLK1 (B) gene expression in different cell lines in response to LTX treatment. […] The 10 common genes found in the plots were defined as “lometrexol responsive mitotic gene signature” including PLK1, AURKA, CDCA3, CDC20, SFPQ, POLA1, PSRC1, KIF20A, FAM83D, and DLGAP5. (D) Volcano plots showing the 10 genes in MLL4 WT cell lines including HT55, Caco2, and SW1417.
Gene count tables were constructed using HTseq (56) with Ensembl gene annotations and used as input for edgeR 3.0.8 (57). Genes with Benjamini-Hochburg adjusted p-values less than were differentially expressed. Batch effects were removed using ComB at-seq on the raw read counts (58). Pathway analysis was performed with Metascape (59).

[4] = LTX 25 mg/kg daily for 7 days vs DMSO

## Nc1nc2c(c(=O)[nH]1)C[C@@H](CCc1ccc(C(=O)N[C@@H](CCC(=O)O)C(=O)O)cc1)CN2 [lometrexol, (2S)-2-[[4-[2-[(6R)-2-amino-4-oxo-5,6,7,8-tetrahydro-3H-pyrido[2,3-d]pyrimidin-6-yl]ethyl]benzoyl]amino]pentanedioic acid]
[1]
  sensitivity of MLL4 mutant cells compared with MLL4 wild type cells (growth inhibition): selectively more sensitive
[2]; LTX 15 mg/kg daily for 7 days vs DMSO, tumor volume day 12 P<0.001, survival P<0.001
  tumor growth at lower dose: maintained the sensitivity to LTX at a lower dose
[2]; [4]
  apoptosis in tumors (TUNEL): enhanced apoptosis
  cell proliferation in tumors (Ki-67): significantly decreased
[2]; LTX 25 mg/kg intraperitoneally daily for 7 days vs DMSO, P<0.0001
  subcutaneous tumor growth (tumor volume): significantly inhibited the subcutaneous (sc) tumor growth
[2]; LTX 25 mg/kg intraperitoneally daily for 7 days vs DMSO, log-rank P<0.0001
  survival of recipient mice: extend the survival of recipient mice
[3]; MLL4 mutant vs WT cells
  differential gene expression change: only induced significant differential gene expression change in MLL4 mutant cells
[3]; remained the same in MLL4 WT cells
  PLK1 and AURKA gene expression: remarkably diminished in all MLL4 mutant cells
[3]; unaffected in MLL4 WT cells
  genes commonly downregulated in all MLL4 mutant cells (RKO, HCT116, DLD1): 885 genes
  genes commonly upregulated in MLL4 mutant cells (RKO, HCT116, DLD1): 707 genes

Reference: patent US20230390297A1, “USE OF NUCLEOTIDE SYNTHESIS INHIBITORS FOR TARGETED THERAPY IN MLL3/4 COMPASS MUTANT CANCER” (priority 2022, published 2023)
